What was measured:
Test in all cases: isoTOP-ABPP mapping of AEA-DA-modified peptides in Neuro2a cells
Format in all cases: cell-based
[1] = target: T1, AEA-DA-modified peptides in Neuro2a cells (Mus musculus, UniProt P34884); settings: AEA-DA-modified peptide MIF P34884 13-38, SEQ ID NO 60; probe 100 μM, 12 replicates
T1 construct: endogenous in cells; host or cells: Neuro2a

[2] = target: T2, AEA-DA-modified peptides in Neuro2a cells (Mus musculus, UniProt Q8BFY9); settings: AEA-DA-modified peptide TNPO1 Q8BFY9 45-65, SEQ ID NO 114; probe 100 μM, 12 replicates
T2 construct: endogenous in cells; host or cells: Neuro2a
T2 sequence (Q8BFY9 whole entry): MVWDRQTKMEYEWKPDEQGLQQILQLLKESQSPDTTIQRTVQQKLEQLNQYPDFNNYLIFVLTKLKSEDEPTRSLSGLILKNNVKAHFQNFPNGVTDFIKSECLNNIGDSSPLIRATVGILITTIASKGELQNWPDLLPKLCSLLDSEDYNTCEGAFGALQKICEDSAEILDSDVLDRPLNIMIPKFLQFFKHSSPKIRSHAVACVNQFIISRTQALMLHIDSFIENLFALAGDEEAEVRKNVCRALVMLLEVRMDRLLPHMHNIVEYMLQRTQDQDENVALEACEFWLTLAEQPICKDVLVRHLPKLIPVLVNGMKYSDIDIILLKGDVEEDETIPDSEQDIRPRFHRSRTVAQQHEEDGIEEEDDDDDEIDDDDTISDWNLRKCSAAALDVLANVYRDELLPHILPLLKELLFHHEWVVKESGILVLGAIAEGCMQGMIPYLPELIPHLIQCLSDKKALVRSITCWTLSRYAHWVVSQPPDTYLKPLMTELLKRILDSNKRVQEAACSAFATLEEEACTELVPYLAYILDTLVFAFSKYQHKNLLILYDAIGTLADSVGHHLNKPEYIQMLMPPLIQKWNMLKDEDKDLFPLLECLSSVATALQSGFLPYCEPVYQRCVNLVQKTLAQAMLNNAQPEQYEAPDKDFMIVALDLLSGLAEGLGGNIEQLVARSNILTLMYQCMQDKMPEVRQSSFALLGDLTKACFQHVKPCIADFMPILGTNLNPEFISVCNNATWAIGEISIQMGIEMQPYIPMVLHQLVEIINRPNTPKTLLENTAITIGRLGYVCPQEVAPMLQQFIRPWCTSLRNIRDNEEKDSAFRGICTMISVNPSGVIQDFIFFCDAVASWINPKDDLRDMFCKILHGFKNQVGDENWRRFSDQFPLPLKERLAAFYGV

[3] = target: T3, AEA-DA-modified peptides in Neuro2a cells (Mus musculus, UniProt O08579); settings: AEA-DA-modified peptide EMD O08579 176-205, SEQ ID NO 37; probe 100 μM, 12 replicates
T3 construct: endogenous in cells; host or cells: Neuro2a
T3 sequence (O08579 whole entry): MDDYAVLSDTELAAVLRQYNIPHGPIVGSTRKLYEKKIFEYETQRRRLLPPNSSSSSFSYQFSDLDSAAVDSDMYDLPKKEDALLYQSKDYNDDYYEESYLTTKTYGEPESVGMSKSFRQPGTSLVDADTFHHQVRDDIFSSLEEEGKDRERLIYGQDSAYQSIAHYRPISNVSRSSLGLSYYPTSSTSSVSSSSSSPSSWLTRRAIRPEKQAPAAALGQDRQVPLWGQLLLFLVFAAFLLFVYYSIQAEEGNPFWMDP

[4] = target: T4, AEA-DA-modified peptides in Neuro2a cells (Mus musculus, UniProt P81117); settings: AEA-DA-modified peptide NUCB2 P81117 60-73, SEQ ID NO 72; probe 100 μM, 12 replicates
T4 construct: endogenous in cells; host or cells: Neuro2a
T4 sequence (P81117 25-420): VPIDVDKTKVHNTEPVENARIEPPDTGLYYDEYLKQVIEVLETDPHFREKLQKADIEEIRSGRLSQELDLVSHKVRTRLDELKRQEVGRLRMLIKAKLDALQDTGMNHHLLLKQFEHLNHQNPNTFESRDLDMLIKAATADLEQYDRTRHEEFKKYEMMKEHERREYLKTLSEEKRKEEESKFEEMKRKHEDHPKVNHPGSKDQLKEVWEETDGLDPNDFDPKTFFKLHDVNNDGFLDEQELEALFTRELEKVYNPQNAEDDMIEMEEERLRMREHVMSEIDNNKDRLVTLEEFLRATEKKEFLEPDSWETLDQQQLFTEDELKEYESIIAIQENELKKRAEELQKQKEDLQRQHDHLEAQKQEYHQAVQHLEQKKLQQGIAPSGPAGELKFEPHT

[5] = target: T5, AEA-DA-modified peptides in Neuro2a cells (Mus musculus, UniProt Q8BGC4); settings: AEA-DA-modified peptide ZADH2 Q8BGC4 86-115, SEQ ID NO 122; probe 100 μM, 12 replicates
T5 construct: endogenous in cells; host or cells: Neuro2a
T5 sequence (Q8BGC4 whole entry): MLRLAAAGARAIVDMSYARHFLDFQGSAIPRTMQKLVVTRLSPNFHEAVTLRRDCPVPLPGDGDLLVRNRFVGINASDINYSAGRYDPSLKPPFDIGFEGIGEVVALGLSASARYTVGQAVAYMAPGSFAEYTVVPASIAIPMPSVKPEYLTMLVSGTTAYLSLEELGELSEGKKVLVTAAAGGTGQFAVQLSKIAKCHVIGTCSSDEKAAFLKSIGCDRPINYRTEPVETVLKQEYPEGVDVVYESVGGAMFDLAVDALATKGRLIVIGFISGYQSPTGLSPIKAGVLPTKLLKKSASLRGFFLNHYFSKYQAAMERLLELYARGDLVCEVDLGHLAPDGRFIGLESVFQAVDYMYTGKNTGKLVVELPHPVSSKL

[6] = target: T6, AEA-DA-modified peptides in Neuro2a cells (Mus musculus, UniProt P67778); settings: AEA-DA-modified peptide PHB P67778 5-12, SEQ ID NO 85; probe 100 μM, 12 replicates
T6 construct: endogenous in cells; host or cells: Neuro2a
T6 sequence (P67778 whole entry): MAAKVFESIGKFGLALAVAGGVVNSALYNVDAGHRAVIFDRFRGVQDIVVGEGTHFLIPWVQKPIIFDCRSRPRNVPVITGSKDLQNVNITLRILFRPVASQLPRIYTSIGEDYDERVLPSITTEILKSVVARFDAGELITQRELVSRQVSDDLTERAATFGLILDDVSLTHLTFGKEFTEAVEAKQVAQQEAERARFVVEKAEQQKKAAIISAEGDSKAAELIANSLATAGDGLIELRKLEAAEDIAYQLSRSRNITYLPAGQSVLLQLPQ

[7] = target: T7, AEA-DA-modified peptides in Neuro2a cells (Mus musculus, UniProt Q99M71); settings: AEA-DA-modified peptide EPDR1 Q99M71 171-182, SEQ ID NO 38; probe 100 μM, 12 replicates
T7 construct: endogenous in cells; host or cells: Neuro2a
T7 sequence (Q99M71 38-224): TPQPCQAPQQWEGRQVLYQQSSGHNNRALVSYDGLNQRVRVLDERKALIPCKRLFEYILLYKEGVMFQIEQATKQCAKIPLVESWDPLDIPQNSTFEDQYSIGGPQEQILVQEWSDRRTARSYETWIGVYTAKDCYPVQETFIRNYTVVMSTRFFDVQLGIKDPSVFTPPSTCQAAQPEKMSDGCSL

[8] = target: T8, AEA-DA-modified peptides in Neuro2a cells (Mus musculus, UniProt Q8CIV2); settings: AEA-DA-modified peptide ORF61 Q8CIV2 245-263, SEQ ID NO 75; probe 100 μM, 12 replicates
T8 construct: endogenous in cells; host or cells: Neuro2a
T8 sequence (Q8CIV2 whole entry): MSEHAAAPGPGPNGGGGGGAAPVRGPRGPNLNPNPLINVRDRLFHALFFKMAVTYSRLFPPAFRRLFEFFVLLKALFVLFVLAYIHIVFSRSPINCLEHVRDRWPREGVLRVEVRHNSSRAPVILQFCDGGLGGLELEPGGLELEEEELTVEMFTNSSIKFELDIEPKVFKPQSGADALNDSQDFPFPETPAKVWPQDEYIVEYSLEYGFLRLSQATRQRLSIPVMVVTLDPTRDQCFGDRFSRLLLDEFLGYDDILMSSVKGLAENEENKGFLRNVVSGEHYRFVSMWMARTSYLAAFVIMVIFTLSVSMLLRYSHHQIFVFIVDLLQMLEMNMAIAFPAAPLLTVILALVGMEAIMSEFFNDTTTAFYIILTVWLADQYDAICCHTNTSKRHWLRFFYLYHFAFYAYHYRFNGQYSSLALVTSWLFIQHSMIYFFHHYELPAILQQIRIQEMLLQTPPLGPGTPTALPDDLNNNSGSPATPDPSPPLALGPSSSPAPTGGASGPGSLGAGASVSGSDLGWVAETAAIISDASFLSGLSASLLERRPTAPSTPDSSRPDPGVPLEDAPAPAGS

[9] = target: T9, AEA-DA-modified peptides in Neuro2a cells (Mus musculus, UniProt Q99JB2); settings: AEA-DA-modified peptide STOML2 Q99JB2 292-322, SEQ ID NO 107; probe 100 μM, 12 replicates
T9 construct: endogenous in cells; host or cells: Neuro2a
T9 sequence (Q99JB2 29-353): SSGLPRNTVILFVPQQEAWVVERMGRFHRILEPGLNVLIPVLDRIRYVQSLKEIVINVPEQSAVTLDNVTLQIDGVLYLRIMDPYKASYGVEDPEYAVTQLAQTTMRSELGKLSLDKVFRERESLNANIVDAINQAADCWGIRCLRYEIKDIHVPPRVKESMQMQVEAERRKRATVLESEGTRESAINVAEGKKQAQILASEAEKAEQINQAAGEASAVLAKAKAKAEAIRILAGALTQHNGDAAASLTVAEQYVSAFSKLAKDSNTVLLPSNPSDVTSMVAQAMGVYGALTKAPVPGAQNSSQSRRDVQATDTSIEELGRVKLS

[10] = target: T10, AEA-DA-modified peptides in Neuro2a cells (Mus musculus, UniProt Q99J47); settings: AEA-DA-modified peptide DHRS7B Q99J47 284-300, SEQ ID NO 31; probe 100 μM, 12 replicates
T10 construct: endogenous in cells; host or cells: Neuro2a
T10 sequence (Q99J47 whole entry): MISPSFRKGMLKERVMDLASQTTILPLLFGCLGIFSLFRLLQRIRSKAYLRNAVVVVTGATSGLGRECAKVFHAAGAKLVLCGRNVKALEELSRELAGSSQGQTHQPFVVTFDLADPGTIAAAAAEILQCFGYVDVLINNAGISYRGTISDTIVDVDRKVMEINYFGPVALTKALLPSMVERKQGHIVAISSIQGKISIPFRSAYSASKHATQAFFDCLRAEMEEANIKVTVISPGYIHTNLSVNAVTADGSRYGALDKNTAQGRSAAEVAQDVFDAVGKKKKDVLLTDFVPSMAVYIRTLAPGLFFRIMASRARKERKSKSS

[11] = target: T11, AEA-DA-modified peptides in Neuro2a cells (Mus musculus, UniProt P70699); settings: AEA-DA-modified peptide GAA P70699 904-935, SEQ ID NO 41; probe 100 μM, 12 replicates
T11 construct: endogenous in cells; host or cells: Neuro2a
T11 sequence (P70699 70-953): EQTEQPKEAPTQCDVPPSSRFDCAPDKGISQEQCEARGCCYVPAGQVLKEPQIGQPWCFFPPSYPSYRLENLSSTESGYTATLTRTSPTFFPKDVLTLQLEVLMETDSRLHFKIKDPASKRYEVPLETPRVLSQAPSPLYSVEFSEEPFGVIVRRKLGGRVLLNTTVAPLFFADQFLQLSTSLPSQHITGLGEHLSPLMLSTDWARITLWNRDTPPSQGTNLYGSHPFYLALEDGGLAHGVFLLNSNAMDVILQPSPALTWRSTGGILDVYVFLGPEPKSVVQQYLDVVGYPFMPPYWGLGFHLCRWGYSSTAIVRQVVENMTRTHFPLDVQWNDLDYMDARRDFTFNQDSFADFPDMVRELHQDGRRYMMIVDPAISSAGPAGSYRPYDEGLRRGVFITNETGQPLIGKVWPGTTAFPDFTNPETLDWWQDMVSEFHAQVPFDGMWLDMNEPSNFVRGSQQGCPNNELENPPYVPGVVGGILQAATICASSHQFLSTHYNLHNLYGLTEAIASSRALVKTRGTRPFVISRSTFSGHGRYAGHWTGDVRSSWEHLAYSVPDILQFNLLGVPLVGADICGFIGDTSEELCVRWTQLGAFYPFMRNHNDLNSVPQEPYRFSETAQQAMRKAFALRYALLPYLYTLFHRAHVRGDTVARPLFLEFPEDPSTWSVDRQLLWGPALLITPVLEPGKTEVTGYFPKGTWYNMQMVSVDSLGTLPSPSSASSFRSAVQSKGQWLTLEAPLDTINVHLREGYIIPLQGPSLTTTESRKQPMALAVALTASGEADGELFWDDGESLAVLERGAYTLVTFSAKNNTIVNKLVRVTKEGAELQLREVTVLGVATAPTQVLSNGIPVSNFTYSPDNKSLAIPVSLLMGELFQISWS

[12] = target: T12, AEA-DA-modified peptides in Neuro2a cells (Mus musculus, UniProt Q99JY4); settings: AEA-DA-modified peptide TRABD Q99JY4 234-253, SEQ ID NO 116; probe 100 μM, 12 replicates
T12 construct: endogenous in cells; host or cells: Neuro2a
T12 sequence (Q99JY4 whole entry): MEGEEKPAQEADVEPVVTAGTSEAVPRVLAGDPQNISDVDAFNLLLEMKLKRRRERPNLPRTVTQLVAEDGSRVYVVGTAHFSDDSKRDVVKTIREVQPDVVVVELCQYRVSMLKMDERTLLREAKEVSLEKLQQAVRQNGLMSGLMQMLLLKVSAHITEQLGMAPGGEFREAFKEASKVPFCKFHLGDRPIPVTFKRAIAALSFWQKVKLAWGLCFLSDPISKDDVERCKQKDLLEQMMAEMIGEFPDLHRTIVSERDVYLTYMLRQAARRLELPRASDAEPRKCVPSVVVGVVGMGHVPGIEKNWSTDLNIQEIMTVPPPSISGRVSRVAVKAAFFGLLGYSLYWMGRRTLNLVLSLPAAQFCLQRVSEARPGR

C#CCCCC1(CC/C=C\C/C=C\C/C=C\CCCC(=O)NCCO)N=N1 [AEA-DA, (5Z,8Z,11Z)-N-(2-hydroxyethyl)-14-(3-(pent-4-yn-1-yl)-3H-diazirin-3-yl)tetradeca-5,8,11-trienamide]
Times observed [1]: 4
Times observed [2]: 5
Times observed [3]: 2
Times observed [4]: 4
Times observed [5]: 8
Times observed [6]: 2
Times observed [7]: 3
Times observed [8]: 4
Times observed [9]: 2
Times observed [10]: 2
Times observed [11]: 11
Times observed [12]: 4

Source: patent US10168342B2, “Lipid probes and uses thereof” (THE SCRIPPS RESEARCH INSTITUTE, priority 2015, dated 2019)
